Data from the supplement of paper PMC10307832.

Assays:
Assay in all cases: relative viability (nuclei count vs DMSO), 5 days (fraction); higher = more cells survive
[1] = compound: C1=CC2=C(C=C(C(=C2N=C1)O)N=NC3=CC4=C(C=C3)C=C(C=C4)S(=O)(=O)O)S(=O)(=O)O + Nc1ncn([C@H]2C[C@H](O)[C@@H](CO)O2)c(=O)n1 [Decitabine] (partner 2 µM)
How it was run: (§1)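 Lung cancer cell lines in 1536-well plates were dosed by pin tool the day after seeding, either with one drug alone or with a fixed anchor-drug dose plus five library-drug doses (not always all listed) in √10 steps. After 5 days, cells were fixed and their nuclei stained in one step (final 0.05% Triton X-100, 1% formaldehyde, 1 ug/ml Hoechst), then counted on 4× images. Relative viability is the nuclei count in treated wells divided by that in vehicle wells. Values are medians of duplicate plates.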

[2] = compound: C1=CC2=C(C=C(C(=C2N=C1)O)N=NC3=CC4=C(C=C3)C=C(C=C4)S(=O)(=O)O)S(=O)(=O)O + O=C(CCCCCCC(=O)Nc1ccccc1)NO [Vorinostat] (partner 1 µM)
How it was run: as §1

AT-7519 + Lapatinib = compound: O=C(NC1CCNCC1)c1n[nH]cc1NC(=O)c1c(Cl)cccc1Cl [AT-7519] + CS(=O)(=O)CCNCc1ccc(-c2ccc3ncnc(Nc4ccc(OCc5cccc(F)c5)c(Cl)c4)c3c2)o1 [Lapatinib] (partner 2 µM)
How it was run: as §1

AT-7519 + Alpelisib = compound: O=C(NC1CCNCC1)c1n[nH]cc1NC(=O)c1c(Cl)cccc1Cl [AT-7519] + Cc1nc(NC(=O)N2CCC[C@H]2C(N)=O)sc1-c1ccnc(C(C)(C)C(F)(F)F)c1 [Alpelisib] (partner 2 µM)
How it was run: as §1

Cell Line | relative viability ([1]; first compound 0.08 µM) | relative viability ([1]; first compound 0.253 µM) | relative viability ([1]; first compound 0.8 µM) | relative viability ([1]; first compound 2.53 µM) | relative viability ([1]; first compound 8 µM) | relative viability ([2]; first compound 0.08 µM) | relative viability ([2]; first compound 0.253 µM) | relative viability ([2]; first compound 0.8 µM) | relative viability ([2]; first compound 2.53 µM) | relative viability ([2]; first compound 8 µM) | relative viability (AT-7519 + Lapatinib; first compound 0.01 µM) | relative viability (AT-7519 + Lapatinib; first compound 0.03162 µM) | relative viability (AT-7519 + Lapatinib; first compound 0.3162 µM) | relative viability (AT-7519 + Lapatinib; first compound 1 µM) | relative viability (AT-7519 + Alpelisib; first compound 0.01 µM) | relative viability (AT-7519 + Alpelisib; first compound 0.03162 µM) | relative viability (AT-7519 + Alpelisib; first compound 0.3162 µM) | relative viability (AT-7519 + Alpelisib; first compound 1 µM)
NCI-H838 | 0.469 | 0.441 | 0.434 | 0.514 | 0.44 | 0.755 | 0.681 | 0.712 | 0.688 | 0.71 | 1.05 | 0.815 | 0.124 | 0.0875 | 1.05 | 0.972 | 0.966 | 0.141
NCI-H1355 | 0.4 | 0.363 | 0.362 | 0.353 | 0.352 | 0.646 | 0.619 | 0.615 | 0.605 | 0.481 | 0.959 | 0.911 | 1.12 | 0.989 | 0.813 | 0.805 | 0.884 | 0.547
NCI-H1395 | 0.724 | 0.734 | 0.737 | 0.714 | 0.691 | 0.674 | 0.596 | 0.554 | 0.73 | 0.551 | 1.03 | 1.14 | 0.802 | 0.602 | 1.18 | 1.06 | 0.898 | 0.584
NCI-H1437 | 0.603 | 0.567 | 0.655 | 0.586 | 0.566 | 0.901 | 0.857 | 0.851 | 0.923 | 0.841 | 0.77 | 0.71 | 0.514 | 0.22 | 1.05 | 0.931 | 0.816 | 0.477
NCI-H1651 | 0.79 | 0.548 | 0.659 | 0.658 | 0.535 | 0.66 | 0.561 | 0.566 | 0.535 | 0.546 | 0.862 | 0.784 | 0.607 | 0.534 | 1.03 | 0.956 | 0.811 | 0.836
NCI-H1666 | 0.821 | 0.711 | 0.716 | 0.815 | 0.747 | 1.05 | 0.98 | 1.03 | 1.07 | 0.985 | 0.657 | 0.579 | 0.327 | 0.347 | 0.846 | 1.01 | 0.864 | 0.326
NCI-H1734 | 0.493 | 0.439 | 0.461 | 0.488 | 0.503 | 0.788 | 0.852 | 0.757 | 0.718 | 0.859 | 0.893 | 1.03 | 0.928 | 0.427 | 0.645 | 0.655 | 0.613 | 0.434
NCI-H1755 | 0.771 | 0.679 | 0.714 | 0.737 | 0.698 | 0.81 | 0.773 | 0.709 | 0.824 | 0.728 | 1.02 | 1.03 | 0.948 | 1.11 | 0.856 | 0.95 | 1.03 | 0.871
NCI-H1793 | 0.527 | 0.521 | 0.409 | 0.47 | 0.49 | 0.797 | 0.814 | 0.795 | 0.78 | 0.838 | 0.554 | 0.713 | 0.421 | 0.226 | 0.574 | 0.632 | 0.907 | 0.774
